Data published in patent publication US7671203B2, “Method and system for separation and purification of at least one narcotic alkaloid using reverse phase preparative chromatography” (Mallinckrodt Inc., priority 2003, dated 2010).

Assay: Solubility of codeine in water

In the case of `COc1ccc2c3c1O[C@H]1[C@@H](O)C=C[C@H]4[C@@H](C2)N(C)CC[C@@]341` [Codeine, codeine], the “concentration above which codeine is not fully soluble in water” value is reported as no more than 30 grams/liter.
